Measured values published in article PMC4549042, “Targeting procaspase-3 with WF-208, a novel PAC-1 derivative, causes selective cancer cell apoptosis” (Journal of Cellular and Molecular Medicine, 2015).
Where two headings read alike, the source gives them in different places.

What was measured:
XIAP and survivin mRNA = assay: Quantitative PCR of XIAP and survivin mRNA; type: cell-based, human; conditions: real-time PCR, different concentrations
Protocol: About 1 × 10^6 cells were gathered after pre-treatment with PAC-1 or WF-208 as described previously. Total RNA was isolated using RNeasy Mini Kit (Qiagen, Duesseldorf, Germany) as described by the product’s instruction. One microgram of RNA was reversely transcribed with ReverAid First Stand cDNA Sythesis Kit (Thermo Fisher, Rockford, USA). For quantitative PCR, analysis was carried out by using iQ SYBR Green Supermix (Bio-Rad, West Berkeley, USA) and the CFX96 RT-PCR Detection System (Bio-Rad) as instructed by the manufacturer. Primers were GAPDH reverse primer 5′-[…]-3′ and forward primer 5′-TTGCCGACAGGATGCAGAA-3′; XIAP reverse primer 5′-TTGCCGACAGGATGCAGAA-3′ and forward primer 5′-[…]-3′; Survivin reverse primer 5′-GGAAACTGCGGAGAAAGTG-3′ and forward primer 5′-TAAACCCTGGAAGTGGTGC-3′. The PCR cycle started with 5 min. at 95°C, followed by 35 cycles of 3 steps (30 sec. at 95°C, 25 sec. at 56°C, 20 sec. at 72°C). The result was calculated as 2^−ΔΔCt of real-time fluorescence intensity.

PC-3 xenograft = assay: Human prostatic carcinoma PC-3 xenograft mouse model; type: in vivo
Protocol: To determine the anti-tumour activity of WF-208 in vivo, viable human prostate cancer PC-3 cells (5 × 10^6/100 μl PBS per mouse) were subcutaneously (s.c.) injected into the right flank of 7- to 8-week old male SCID mice. When the average tumour volume reached 100 mm^3, mice were randomly divided into various treatment and control group (eight mice per group). Tumour size was measured once every 2 days with a calliper (calculated volume = shortest diameter^2 × longest diameter/2). Body weight, diet consumption and tumour size were recorded once every 2 days. After 2 weeks, mice were killed and tumours were excised and stored at −80°C until further analysis.

rh-procaspase-3 = target: T1, rh-procaspase-3 (Homo sapiens, UniProt P42574); assay: Assay of zinc inhibition of procaspase-3 activation; type: biochemical; conditions: PC3 + 5 μM ZnSO4; read-out: EC50 of procaspase-3 activation in zinc-containing buffer
T1 construct: purchased R&D System (Minneapolis, USA)
T1 sequence (P42574 1-277): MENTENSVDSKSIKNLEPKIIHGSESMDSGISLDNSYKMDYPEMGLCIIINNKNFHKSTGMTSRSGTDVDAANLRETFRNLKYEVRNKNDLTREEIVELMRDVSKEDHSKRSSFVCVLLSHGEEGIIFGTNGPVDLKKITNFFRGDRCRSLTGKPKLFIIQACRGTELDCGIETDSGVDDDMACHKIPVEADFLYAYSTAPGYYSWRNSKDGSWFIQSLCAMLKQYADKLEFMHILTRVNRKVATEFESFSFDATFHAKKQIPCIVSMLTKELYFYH
Protocol: HEPES buffer [with 50 mM HEPES and 300 mM NaCl (pH 7.4)] was treated with Chelex resin to remove trace bivalent cations (including zinc ion). ZnSO4 and different concentration PAC-1 or WF-208 was added to procaspase-3 in HEPES to yield a final concentration of 0.5 μM procaspase-3. After 12 hrs of incubation at 37°C, Ac-DEVD-pNA in buffer [50 mM Hepes (pH 7.4), 100 mM NaCl, 10 mM DTT, 0.1 mM EDTA disodium salt, 0.10% Chaps, 10% glycerol] was added. The final concentration Ac-DEVD-pNA is 0.4 μM. Then the plate was read absorbance at 405 nm in kinetic mode for 10 min. On the other hand, after various time of incubation at 37°C, western blotting was used to detect the cleavage of procaspase-3 [13],[14].

[1] = tested on: human malignant cell lines; assay: MTT cytotoxicity in fifteen human malignant cell lines; type: cell-based; conditions: for IC50: Homo sapiens, MTT, 72 hrs
From the text: Human malignant cell lines, A549, Colo-205, DU145, NCI-H226, Hep-3B, Hep-G2, K562, MCF-7, U-87, GBC-SD, MDA-MB-435S, PC-3, U-937, HL60, SH-SY5Y and human normal cell lines, MCF-10A and L-02, HUVEC were obtained from the American Type Culture Collection (Manassas, VA, USA) and National Center for Medical Culture Collection (Shanghai, China). They were routinely cultured in RPMI 1640, DMEM or DMEM/F12 (Gibco, New York, USA) supplemented with 10% foetal bovine serum (Gibco, New York, USA) and maintained at 37°C in a humidified incubator with 5% CO2.
(§1) The cell viability effects of the tested compounds were determined by MTT assay. Cells (1 × 10^4 cells/100 μl/well) were seeded into 96-well culture plates. After overnight incubation, cells were treated with various concentrations of compounds for 72 hrs. Subsequently, 10 μl MTT solution (2.5 mg/ml in PBS) was added to each well, than the cells were incubated for an additional 3–4 hrs at 37°C. After centrifugation (200 × g, 10 min.), the medium with MTT was aspirated, followed by the addition of 100 μl DMSO. The optical density of each well was measured at 570 nm with a Biotek Synergy TM HT Reader.

[2] = tested on: procaspase-3-silenced HL-60 cells; assay: Cytotoxicity in procaspase-3 silenced HL-60 cells; type: cell-based, human; conditions: different concentrations, 24 hrs, vs scrambled siRNA control
Protocol: as §1, with “After overnight incubation, cells were treated with various concentrations of compounds for 72 hrs.” left out
HL-60 cells were transfected with procaspase-3 siRNA (Invitrogen, New York, USA, 100 nmol/l final concentration, Sense siRNA Sequence: GUCUAACUGGAAAACCCAAtt Antisense siRNA Sequence: UUGGGUUUUCCAGUUAGACtt) by Lipofectamine 2000 (Invitrogen) according to the manufacturer’s instructions. Scrambled siRNA (Invitrogen) was control. The cDNA of human procaspase-3 was cloned into pIRES2-EGFP expression vector, and procaspase-3 and EGFP genes were separately expressed. The pIRES2-EGFP and pIRES2-EGFP-procaspase-3 were transiently transfected into MCF-7 cells. Expression of procaspase-3 was verified by western blotting.

[3] = Western blot of tumour tissue after drug exposure

O=C(CN1CCN(Cc2nc(-c3ccc(COc4ccc(Cl)cc4)cc3)no2)CC1)N/N=C/c1ccc(OCc2csc(Cc3ccc4c(c3)OCO4)n2)cc1O [C2]
XIAP and survivin mRNA (XIAP and survivin mRNA): failed to change
influence on body weight (PC-3 xenograft; 2.5 mg/kg i.v., 15 days): minimal influence
tumour volume compared with control group (PC-3 xenograft; 2.5 mg/kg i.v., 15 days): significantly reduced
expression of activated caspase-3 and cleaved PARP in tumour tissue (PC-3 xenograft; [3]): increased
expression of survivin and XIAP in tumour tissue (PC-3 xenograft; [3]): decreased
EC50 (rh-procaspase-3): 2490 nM
IC50 ([1]; range over the cell lines, read-out: IC50 values against tumour cells): 80 to 12800 nM
IC50 ([1]; read-out: overall mean IC50 value in the fifteen malignant cell lines): 1660 nM
fold increase of cytotoxicity (mean IC50) compared with PAC-1 ([1]; fifteen malignant cell lines): ~20 fold
cytotoxic effect in procaspase-3-silenced HL-60 cells [2]: less than control HL-60 cells
